Source: patent US11344510B2, “Arylcyclohexylamine derivatives and their use in the treatment of psychiatric disorders” (Gilgamesh Pharmaceuticals, Inc., priority 2019, dated 2022)

Columns and labels:
[1] = target: MK-801 binding site of the N-methyl-D-aspartate receptor (NMDAR); experiment: NMDAR radioligand binding with [3H]MK-801, Method B; parameters: species or system Sprague Dawley rat; details: MK-801 site, Method B, male Sprague Dawley rat cortex, 5.0 nM [3H]MK-801; read-out: NMDAR Ki ± SEM
Method: Radioligand Binding—Method B. Affinity of the test compounds for NMDAR was determined in radioligand binding experiments with [^3H]MK-801 by WuXi AppTec (Hong Kong) Limited, under the conditions described in Table 13.

[2] = MLM stability (Low Activity); format: in vitro ADME, CD-1 mice; details: male, CD-1, mouse, liver microsomes, pH 7.4, Condition 1 (Low Activity), 0.50 mg protein/mL
Method: (§1) MLM Stability (Low Activity). Pooled MLM from male CD-1 mice (XenoTech M1000) were used. Microsomal incubations were carried out in multi-well plates. Liver microsomal incubation medium consisted of PBS (100 mM, pH 7.4), MgCl2 (1 mM), and NADPH (1 mM), with 0.50 mg of liver microsomal protein per mL. Control incubations were performed by replacing the NADPH-cofactor system with PBS. Test compounds (1 μM, final solvent concentration 1.0%) were incubated with microsomes at 37° C. with constant shaking. Six time points over 60 minutes were analyzed, with 60 μL aliquots of the reaction mixture being drawn at each time point. The reaction aliquots were stopped by adding 180 μL of cold (4° C.) acetonitrile containing 200 ng/mL tolbutamide and 200 ng/mL labetalol as internal standards (IS), followed by shaking for 10 minutes, and then protein sedimentation by centrifugation at 4000 rpm for 20 minutes at 4° C. Supernatant samples (80 μL) were diluted with water (240 μL) and analyzed for parent compound remaining using a fit-for-purpose liquid chromatography-tandem mass spectrometry (LC-MS/MS) method.
(§2) Data Analysis. The elimination constant (kel), half-life (t1/2) and intrinsic clearance (Clint) were determined in a plot of […] versus time, using linear regression analysis.

[3] = target: T1, vesicular monoamine transporter 2 (VMAT2) (Homo sapiens, UniProt Q05940); experiment: Fluorescent substrate uptake inhibition, VMAT2; format: cell-based; details: 10 μM, transfected cells
T1 construct: expressed in transfected cells
T1 sequence (Q05940 whole entry, species assumed): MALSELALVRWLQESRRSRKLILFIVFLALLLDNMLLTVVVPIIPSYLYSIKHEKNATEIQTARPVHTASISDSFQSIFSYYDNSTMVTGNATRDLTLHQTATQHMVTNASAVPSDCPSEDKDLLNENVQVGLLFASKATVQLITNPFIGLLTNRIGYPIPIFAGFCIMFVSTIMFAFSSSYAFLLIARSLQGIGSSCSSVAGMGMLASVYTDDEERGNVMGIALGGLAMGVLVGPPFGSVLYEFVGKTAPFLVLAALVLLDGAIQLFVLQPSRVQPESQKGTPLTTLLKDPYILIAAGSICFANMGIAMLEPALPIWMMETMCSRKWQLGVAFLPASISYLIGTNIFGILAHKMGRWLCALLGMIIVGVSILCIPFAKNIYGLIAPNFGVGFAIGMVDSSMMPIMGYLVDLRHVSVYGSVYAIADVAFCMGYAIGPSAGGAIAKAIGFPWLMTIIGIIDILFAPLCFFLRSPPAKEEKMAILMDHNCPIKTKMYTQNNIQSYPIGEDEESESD
Method: (§3) Uptake Inhibition. The ability of test compounds to block monoamine uptake by SERT, NET, DAT, and VMAT2 was determined using the Neurotransmitter Transporter Uptake Assay Kit manufactured by Molecular Devices (Cat #R8173). Briefly, stably transfected cells expressing the MAT of interest (HEK293 cells for SERT and NET; CHO cells for DAT) were grown and plated into 384-well plates at a concentration of 20,000 cells per well. Plates were then incubated for 16-20 h at 37° C. and 5% CO2. The medium was then aspirated and replaced with 25 μL of assay buffer (20 mM HEPES in HBSS, containing 0.1% BSA) containing the test compounds at the appropriate concentrations. Plates were then centrifuged at 300 rpm for 15 s and then incubated at 37° C. for 30 minutes. At this time, 25 μL of the proprietary fluorescent dye solution was added, the plates were incubated at 37° C. for 60 minutes, and then fluorescence was quantified on a plate reader (excitation wavelength=440 nm, emission wavelength=520 nm). The proprietary dye solution contains a mixture of 1) a fluorescent dye that mimics the endogenous substrates of MATs and is thereby actively transported to the intracellular compartment in the absence of an inhibitor and 2) a masking dye that inhibits the fluorescence of dye 1 in the extracellular compartment. Therefore, the overall fluorescence of the system increases as the fluorescent dye is transported into the cells.

[4] = HLM stability (Low Activity, Alternative Method); format: in vitro ADME; details: both sexes, human, liver microsomes, pH 7.4, Condition 1 column, values marked *: Low Activity, 0.50 mg protein/mL
Method: as §1, with “HLM” for “MLM”, “Activity, Alternative Method).” for “Activity).”, “from adult” for “from”, “and female donors (Corning 452117)” for “CD-1 mice (XenoTech M1000)”
as §2

[5] = target: T2, norepinephrine transporter (NET) (Homo sapiens, UniProt P23975); experiment: Fluorescent substrate uptake inhibition, NET; format: cell-based; details: 10 μM, HEK293 cells expressing NET
T2 construct: expressed in transfected cells; host or cells: HEK293
T2 sequence (P23975 whole entry, species assumed): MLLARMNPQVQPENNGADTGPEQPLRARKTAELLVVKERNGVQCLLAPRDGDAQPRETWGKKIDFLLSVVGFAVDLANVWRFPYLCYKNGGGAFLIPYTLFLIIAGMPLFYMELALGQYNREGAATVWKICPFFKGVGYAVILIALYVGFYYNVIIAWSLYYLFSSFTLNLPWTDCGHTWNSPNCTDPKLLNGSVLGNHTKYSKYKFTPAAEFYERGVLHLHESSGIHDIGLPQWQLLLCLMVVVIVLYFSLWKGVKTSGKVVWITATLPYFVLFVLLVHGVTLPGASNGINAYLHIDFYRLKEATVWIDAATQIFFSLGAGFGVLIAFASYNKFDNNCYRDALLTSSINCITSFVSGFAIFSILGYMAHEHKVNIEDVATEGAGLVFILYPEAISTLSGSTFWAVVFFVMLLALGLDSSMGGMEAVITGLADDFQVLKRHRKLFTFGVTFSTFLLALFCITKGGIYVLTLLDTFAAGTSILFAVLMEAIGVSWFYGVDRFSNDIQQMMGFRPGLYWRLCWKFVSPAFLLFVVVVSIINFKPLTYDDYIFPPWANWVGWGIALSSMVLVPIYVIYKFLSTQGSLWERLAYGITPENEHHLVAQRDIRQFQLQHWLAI
Method: as §3

[6] = target: T3, dopamine transporter (DAT) (Homo sapiens, UniProt Q01959); experiment: Fluorescent substrate uptake inhibition, DAT; format: cell-based; details: 10 μM, CHO cells expressing DAT
T3 construct: expressed in transfected cells; host or cells: CHO (uptake)
T3 sequence (Q01959 whole entry, species assumed): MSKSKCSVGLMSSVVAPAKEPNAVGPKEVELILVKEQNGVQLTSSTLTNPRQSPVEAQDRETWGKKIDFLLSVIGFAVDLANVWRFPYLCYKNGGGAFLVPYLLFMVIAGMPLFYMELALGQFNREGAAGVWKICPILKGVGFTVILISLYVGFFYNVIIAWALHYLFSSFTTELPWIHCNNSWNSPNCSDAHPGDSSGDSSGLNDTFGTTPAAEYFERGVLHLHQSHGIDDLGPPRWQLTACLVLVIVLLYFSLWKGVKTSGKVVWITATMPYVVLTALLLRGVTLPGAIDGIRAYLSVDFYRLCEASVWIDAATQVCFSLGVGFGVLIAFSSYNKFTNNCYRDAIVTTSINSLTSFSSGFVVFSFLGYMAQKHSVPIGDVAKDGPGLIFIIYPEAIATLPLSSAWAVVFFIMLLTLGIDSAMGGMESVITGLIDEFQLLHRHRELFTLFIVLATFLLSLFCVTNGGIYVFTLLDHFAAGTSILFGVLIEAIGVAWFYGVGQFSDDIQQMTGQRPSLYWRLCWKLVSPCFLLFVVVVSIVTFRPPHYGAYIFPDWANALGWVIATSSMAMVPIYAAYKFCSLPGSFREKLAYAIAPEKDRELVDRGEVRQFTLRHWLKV
Method: as §3

[7] = target: T4, serotonin transporter (SERT) (Homo sapiens, UniProt P31645); experiment: Fluorescent substrate uptake inhibition, SERT; format: cell-based; details: 10 μM, HEK293 cells expressing SERT
T4 construct: expressed in transfected cells; host or cells: HEK293
T4 sequence (P31645 whole entry, species assumed): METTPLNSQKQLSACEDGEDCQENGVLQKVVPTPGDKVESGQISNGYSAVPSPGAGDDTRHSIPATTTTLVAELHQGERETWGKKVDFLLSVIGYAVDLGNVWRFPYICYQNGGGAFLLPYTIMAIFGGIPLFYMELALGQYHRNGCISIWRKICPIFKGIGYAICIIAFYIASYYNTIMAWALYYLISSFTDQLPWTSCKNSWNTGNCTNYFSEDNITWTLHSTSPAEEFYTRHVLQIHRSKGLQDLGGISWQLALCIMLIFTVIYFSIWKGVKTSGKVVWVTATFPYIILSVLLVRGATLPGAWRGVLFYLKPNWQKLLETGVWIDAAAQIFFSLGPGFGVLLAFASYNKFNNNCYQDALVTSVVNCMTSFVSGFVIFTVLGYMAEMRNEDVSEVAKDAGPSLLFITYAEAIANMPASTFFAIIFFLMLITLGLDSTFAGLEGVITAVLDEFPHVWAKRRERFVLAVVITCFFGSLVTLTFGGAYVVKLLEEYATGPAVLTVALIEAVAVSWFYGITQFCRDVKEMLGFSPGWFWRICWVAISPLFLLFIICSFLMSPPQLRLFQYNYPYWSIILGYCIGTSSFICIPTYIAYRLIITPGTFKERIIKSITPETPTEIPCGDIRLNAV
Method: as §3

[8] = RLM stability (Low Activity); format: in vitro ADME, Sprague Dawley rats; details: male, Sprague Dawley, rat, liver microsomes, pH 7.4, Condition 1 (Low Activity), 0.50 mg protein/mL
Method: as §1, with “RLM” for “MLM”, “Sprague Dawley rats” for “CD-1 mice”, “R1000)” for “M1000)”
as §2

[9] = MLM stability (High Activity); format: in vitro ADME, BALB/c mice; details: male, BALB/c, mouse, liver microsomes, pH 7.4, Condition 2 (High Activity), 1.0 mg protein/mL
Method: MLM Stability (High Activity). Pooled MLM from male BALB/c mice (XenoTech M3000) were used. Microsomal incubations were carried out in 96-well plates in 5 aliquots of 40 μL each (one for each time point). Liver microsomal incubation medium consisted of PBS (100 mM, pH 7.4), MgCl2 (3.3 mM), NADPH (3 mM), glucose-6-phosphate (5.3 mM), and glucose-6-phosphate dehydrogenase (0.67 units/mL), with 1.0 mg of liver microsomal protein per mL. Control incubations were performed by replacing the NADPH-cofactor system with PBS. Test compounds (1 μM, final solvent concentration 1.6%) were incubated with microsomes at 37° C., shaking at 100 rpm. Incubations were performed in duplicate. Five time points over 60 minutes were analyzed. The reactions were stopped by adding 9 volumes of 90% acetonitrile-water to incubation aliquots, followed by protein sedimentation by centrifugation at 5500 rpm for 3 minutes. Supernatants were analyzed for parent compound remaining using a fit-for-purpose liquid chromatography-tandem mass spectrometry (LC-MS/MS) method, with authentic samples of each analyte used for identity confirmation.
as §2

[10] = HLM stability (High Activity); format: in vitro ADME; details: both sexes, human, liver microsomes, pH 7.4, Condition 2 (High Activity), 1.0 mg protein/mL
Method: HLM Stability (High Activity). Pooled HLM from adult male and female donors (XenoTech H0630) were used. Microsomal incubations were carried out in 96-well plates in 5 aliquots of 40 μL, each (one for each time point). Liver microsomal incubation medium consisted of PBS (100 mM, pH 7.4), MgCl2 (3.3 mM), NADPH (3 mM), glucose-6-phosphate (5.3 mM), and glucose-6-phosphate dehydrogenase (0.67 units/mL), with 1.0 mg of liver microsomal protein per mL. Control incubations were performed by replacing the NADPH-cofactor system with PBS. Test compounds (1 μM, final solvent concentration 1.6%) were incubated with microsomes at 37° C., shaking at 100 rpm. Incubations were performed in duplicate. Five time points over 60 minutes were analyzed. The reactions were stopped by adding 12 volumes of 90% acetonitrile-water to incubation aliquots, followed by protein sedimentation by centrifugation at 5500 rpm for 3 minutes. Supernatants were analyzed for parent compound remaining using a fit-for-purpose liquid chromatography-tandem mass spectrometry (LC-MS/MS) method, with authentic samples of each analyte used for identity confirmation.
as §2

Structure (SMILES) | Ki [1] | half-life at 1 μM [2] | microsomal CLint at 1 μM [2] | inhibition at 10 µM [3] | half-life at 1 μM [4] | microsomal CLint at 1 μM [4] | inhibition at 10 µM [5] | inhibition at 10 µM [6] | inhibition at 10 µM [7] | half-life at 1 μM [8] | microsomal CLint at 1 μM [8] | half-life at 1 μM [9] | microsomal CLint at 1 μM [9] | half-life at 1 μM [10] | microsomal CLint at 1 μM [10]
CNC1(c2ccc(C)cc2)CCCCC1=O (racemic) [Compound 119rac, 2-(methylamino)-2-(p-tolyl)cyclohexan-1-one] | 16.7 µM | 75.5 min | 18.4 µL/min/mg | 48.1% | > 145 min | < 9.6 µL/min/mg | 5% | 10.3% | 42% | 3.3 min | 417 µL/min/mg |  |  |  | 
CN[C@@]1(c2ccccc2C)CCCCC1=O [Compound 38R, (R)-2-(methylamino)-2-(o-tolyl)cyclohexan-1-one] | 0.74 µM |  |  | 2.9% |  |  | 20.3% | -2.2% | 41.5% |  |  | 30 min | 23 µL/min/mg | 111 min | 6 µL/min/mg
O=C1CCCC[C@@]1(c1ccccc1)N1CCOCC1 [Compound 31S, (S)-2-morpholino-2-phenylcyclohexan-1-one] | > 23 µM | 10.8 min | 128 µL/min/mg | -5.5% | 61 min | 22.7 µL/min/mg | 1.6% | 16.9% | -7.9% | 9.6 min | 144 µL/min/mg |  |  |  | 
Cc1cccc(C2(N)CCCCC2=O)c1 (racemic) [Compound 118rac, 2-amino-2-(m-tolyl)cyclohexan-1-one] | 4.5 µM | 84.4 min | 16.4 µL/min/mg | 36.6% | > 145 min | < 9.6 µL/min/mg | 19.5% | 23.8% | 16.9% | 7.2 min | 192 µL/min/mg |  |  |  | 
O=C1CCCC[C@]1(NCCO)c1ccccc1 [Compound 30S, (S)-2-((2-hydroxyethyl)amino)-2-phenylcyclohexan-1-one] | 23 µM |  |  | 23.2% |  |  | 22.3% | 18.7% | 51.9% |  |  | 4.3 min | 162 µL/min/mg | 11.4 min | 61 µL/min/mg
CN[C@]1(c2ccccc2C)CCCCC1=O [Compound 38S, (S)-2-(methylamino)-2-(o-tolyl)cyclohexan-1-one] | 0.24 µM |  |  | -11.2% |  |  | 2.7% | 8.3% | 39.7% |  |  | 22.4 min | 31 µL/min/mg | 110 min | 6 µL/min/mg
O=C1CCCC[C@@]1(NCCF)c1ccccc1 [Compound 86R, (R)-2-((2-fluoroethyl)amino)-2-phenylcyclohexan-1-one] | 7.1 µM |  |  | -8.9% |  |  | 11.4% | 13.6% | 7.1% |  |  | 6.2 min | 113 µL/min/mg | 55.8 min | 12 µL/min/mg
O=C1CCCC[C@]1(NCCF)c1ccccc1 [Compound 86S, (S)-2-((2-fluoroethyl)amino)-2-phenylcyclohexan-1-one] | 1.3 µM |  |  | -5.5% |  |  | 12.2% | 20.8% | 14.1% |  |  | 8.5 min | 82 µL/min/mg | 61.9 min | 11 µL/min/mg
O=C1CCCC[C@@]1(NCCO)c1ccccc1 [Compound 30R, (R)-2-((2-hydroxyethyl)amino)-2-phenylcyclohexan-1-one] | > 23 µM |  |  | 16.3% |  |  | 3.5% | 8.5% | 1.2% |  |  | 6.5 min | 106 µL/min/mg | 23 min | 30 µL/min/mg
